For assay [1], the target named is T1, hVDR (Homo sapiens, UniProt P11473).
T1 construct: expressed in transfected cells; host or cells: HEK293
T1 sequence (P11473 1-427): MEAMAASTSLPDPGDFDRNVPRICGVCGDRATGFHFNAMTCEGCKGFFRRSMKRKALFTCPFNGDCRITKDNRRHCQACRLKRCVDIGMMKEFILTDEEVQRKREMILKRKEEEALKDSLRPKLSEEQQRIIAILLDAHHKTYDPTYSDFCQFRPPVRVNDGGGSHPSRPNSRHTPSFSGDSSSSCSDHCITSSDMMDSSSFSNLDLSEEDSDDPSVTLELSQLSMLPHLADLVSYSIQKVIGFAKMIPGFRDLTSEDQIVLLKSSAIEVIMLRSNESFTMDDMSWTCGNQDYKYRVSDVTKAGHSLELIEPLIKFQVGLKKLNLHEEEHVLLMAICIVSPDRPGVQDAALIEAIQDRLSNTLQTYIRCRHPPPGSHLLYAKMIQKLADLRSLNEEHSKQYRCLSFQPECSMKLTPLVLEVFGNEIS
Description: VDR transactivation luciferase reporter assay in HEK293 cells (SPP×3-tk-LUC). The class given is cell-based. On the procedure:
The transcriptional activity of the 25-alkylvitamin D analogs on the VDR was evaluated via a luciferase reporter assay in HEK293 human kidney cells transfected with an hVDR expression vector and a luciferase reporter with mouse osteopontin vitamin D response elements (VDREs, SPP×3-tk-LUC).
Transfections of 50 ng of TK-Spp × 3-LUC reporter plasmid, 10 ng of pCMX-β-galactosidase, and 15 ng of pCMX-VDR for each well of a 96-well plate were performed in HEK293 cells using the calcium phosphate coprecipitation method, as described previously. The mammalian two-hybrid assay for cofactor interaction with VDR used 50 ng of TK-MH100(UAS) × 3- LUC reporter plasmid, 10 ng of pCMX-β-galactosidase, 15 ng of pCMX-GAL4-RXRα, pCMX-GAL4-SRC1, or pCMX-GAL4-NCoR, and 15 ng of pCMX-VP16-VDR for each well of a 96-well plate. Luciferase and β-galactosidase activities were measured with a luminometer and a microplate reader (Molecular Devices, Sun Jose, CA, USA), respectively. Luciferase values were normalized to the internal β-galactosidase control.
HEK293 cells were co-transfected with TK-Spp × 3-LUC reporter plasmid and pCMX−VDR, and 8 h after transfection the cells were treated with several concentrations of each compound. After 24 h, the cells were harvested for assaying luciferase and β-galactosidase activity using a luminometer (Molecular Devices, Sunnyvale, CA, USA).

In assay [2] the test system is human dedifferentiated fat (DFAT) cells. Description: Osteogenic differentiation assay: ALP activity in human DFAT cells. The class given is cell-based. The conditions noted are these: osteogenic medium, 100 nM, 7 days, natural hormone 1 = 100%.
Assay [3] addresses T2, recombinant hVDR-LBD (Homo sapiens, UniProt P11473).
T2 sequence (P11473 140-427): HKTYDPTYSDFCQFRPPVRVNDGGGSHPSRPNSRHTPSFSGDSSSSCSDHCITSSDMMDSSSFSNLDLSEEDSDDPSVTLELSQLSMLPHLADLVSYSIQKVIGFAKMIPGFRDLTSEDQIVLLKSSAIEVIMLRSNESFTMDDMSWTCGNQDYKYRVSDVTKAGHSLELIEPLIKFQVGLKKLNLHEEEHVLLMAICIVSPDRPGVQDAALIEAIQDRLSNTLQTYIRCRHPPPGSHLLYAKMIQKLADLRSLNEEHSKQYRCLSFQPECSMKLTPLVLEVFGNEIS
Nature of the assay: biochemical.

Assay [4] relates to CYP24A1 expression in H292 cells. Description: CYP24A1 expression (RT-qPCR) in H292 cells. The conditions noted are these: H292 lung cells, 100 nM, 24 h.
The target of assay [5] is T3, VDR with SRC-1 (Homo sapiens, UniProt P11473).
T3 sequence (P11473 1-427): T1 sequence (P11473 1-427)
T3 sequence (Q15788 595-771 partner limits assumed): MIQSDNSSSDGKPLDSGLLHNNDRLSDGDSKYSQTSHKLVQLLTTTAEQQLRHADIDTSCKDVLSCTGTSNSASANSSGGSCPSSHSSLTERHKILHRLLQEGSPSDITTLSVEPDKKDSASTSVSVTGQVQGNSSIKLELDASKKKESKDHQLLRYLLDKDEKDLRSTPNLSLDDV
Nature of the assay: Mammalian two-hybrid assay, VDR binding to SRC-1.

Assay [6] deals with T4, VDR with RXRα (Homo sapiens, UniProt P11473).
T4 sequence (P11473 1-427): T1 sequence (P11473 1-427)
T4 sequence (P19793 1-462 partner): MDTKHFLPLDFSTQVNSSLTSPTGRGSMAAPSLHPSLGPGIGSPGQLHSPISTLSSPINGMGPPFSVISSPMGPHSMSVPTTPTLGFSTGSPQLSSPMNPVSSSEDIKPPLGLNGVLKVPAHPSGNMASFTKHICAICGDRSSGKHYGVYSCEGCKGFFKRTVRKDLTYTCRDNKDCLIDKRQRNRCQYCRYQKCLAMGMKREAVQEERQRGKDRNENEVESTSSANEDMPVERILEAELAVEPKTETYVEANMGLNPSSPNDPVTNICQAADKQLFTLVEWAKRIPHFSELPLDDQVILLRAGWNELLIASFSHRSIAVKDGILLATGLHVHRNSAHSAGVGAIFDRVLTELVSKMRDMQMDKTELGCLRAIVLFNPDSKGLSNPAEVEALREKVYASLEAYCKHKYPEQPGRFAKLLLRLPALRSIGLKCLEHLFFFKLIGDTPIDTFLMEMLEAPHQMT
Description: Mammalian two-hybrid assay, interaction of the VDR with RXRα.

Structures are written as SMILES. Like-named read-outs stand apart in the source and are kept apart here.

The term EC50 denotes the concentration needed to bring the measured effect to its halfway point. As usually defined, the IC50 is the concentration at which inhibition is half-maximal. In assay [1] (1,25(OH)2D3 = 100%), `C=C1[C@H](O)CC(=C/C=C2\CCC[C@]3(C)[C@@H]([C@H](C)CC#C[C@](O)(CCCC)C45CC6CC(CC(C6)C4)C5)CC[C@@H]23)C[C@H]1O` [ADKM6, (25S)-25-(1-Adamantyl)-1α,25-dihydroxy-2-methylidene-26-propyl-23-yne-19,27-dinorvitamin D3] gave a Transcriptional activity efficacy of 95%. The EC50 is 0.62 nM in assay [1] (read-out: Transcriptional activity EC50); 0.6 nM in assay [1] (this study, read-out: Transcriptional Activity EC50); 2.4 nM in assay [5]. Besides, the Emax in assay [1] (this study, read-out: Transcriptional Activity % Efficacy of That of 1 (converted)) is 95%. The ALP activity in assay [2] is reported as 62.4%. Besides, in assay [3], the IC50 amounted to 1.6 nM. Further, in assay [4], the “CYP24A1 expression relative to natural hormone 1” value worked out at 87.9%. Further, the “VDR-RXRα interaction EC50” value in assay [6] (HEK293 cells, two-hybrid) is “second-highest activity”. Further, the VDR-RXRα interaction efficacy in assay [6] (compared to natural hormone 1) is listed as 114%.

These data come from publication PMC10377034, “Syntheses of 25-Adamantyl-25-alkyl-2-methylidene-1α,25-dihydroxyvitamin D3 Derivatives with Structure–Function Studies of Antagonistic and Agonistic Active Vitamin D Analogs” (Biomolecules, 2023).
